{"source": "patent US20100330029A1", "about": "“Cancer Treatments with Radiation and Immunocytokines” (Merck Patent GmbH, priority 2008, published 2010)", "tested_on": "Lewis lung carcinoma (LLC)", "assay": "tumor growth assay, Lewis lung carcinoma model", "format": "in vivo, mice", "details": "LLC-3, single-arm groups: cisplatin plus 3.6 Gy/d without EMD521873, or EMD521873 alone", "experimental": "LL/2 (LLC) cells, a murine Lewis lung carcinoma cell line, were maintained in DMEM, supplemented with 10% heat-inactivated fetal bovine serum, L-glutamine, penicillin/streptomycin (Life Technologies, Inc.) at 37° C. and 7% CO2. LLC cells were implanted in female C57BL/6 mice.\nFor the tumor growth assay, cells growing exponentially in culture were injected as a single cell suspension in 100 μl of PBS intramuscularly into the upper legs of the mice. In experiments using a dual tumor model, cells were also implanted in the flanks of the mice. […] In Experiment LLC-7, tumors were implanted in the flank until established. Mice were treated on days 0 to 9, then, on day 12, tumors were excised using survival surgery. Thereafter, animal survival was monitored. In Experiment LLC-14, tumors were implanted subcutaneously in the flank until established. Mice were treated on days 0 to 6 and day 17, and tumor size was measured twice weekly for the duration of the study.\nTumors were measured with calipers in three dimensions for the duration of the experiment. Tumor volumes were calculated using the equation:\nVolume=4/3π(L/2×W/2×H/2) • where L=length, W=width and H=height of the tumor\nFor local irradiation, mice were anesthetized by intraperitoneal injection of a solution of 2% tribromoethanol/3% xylazine. The amount injected was 0.02 ml/gram of the recipient's weight. Mice were restrained so that only their tumor-bearing leg was exposed to radiation, while the reminder of the mouse was shielded. Tumors were irradiated with ^137Cs gamma radiation at a dose rate of 1 Gy/min using a Gammacell® 40 Exactor (Nordion, Ottawa, ON).\nData from the subcutaneous tumor growth assay are presented in graphic form depicting average and standard deviations (sd) of tumor volumes or weights during and after dosing. Animal weight changes were determined by subtracting the animal weight at each time point from the initial body weight, on day 0, then dividing by the initial body weight and multiplying by 100. Therefore a value of 0 indicates no weight change.\nStudent's 2-tailed t test or Mann-Whitney Rank Sum test, as appropriate, was performed on the individual tumor volumes or animal weights, to determine significant differences between treatment groups."}
{"molecule": "N.N.[Cl][Pt][Cl]", "note": "[cisplatin, cis-diammineplatinum (II) dichloride, reference compound]", "values": [{"measurement": "T/C", "setting": "day 19", "result": 0.32}, {"measurement": "complete responses", "result": "0/6"}]}
